Measurements as given in patent publication US20100055799A1, “TEST AGENT FOR DIAGNOSING DYSPEPSIA” (priority 2006, published 2010).
Read-outs that look alike come from different tables or passages of the source. Values belong to the molecule of their own block, whether it stands above or below them.

Key:
[1] = assay type: physicochemical
[2] = 2-13C uracil concentration in plasma of patients suspected of post-operative gastroparesis; assay type: in vivo, human; details: 20 minutes after oral 100 mg 2-13C uracil (Example 2 granules); patients with decreased or insufficient gastric-emptying function versus normal type
[3] = tested on: gastric-emptying function; experiment: 13C breath test in delayed gastric-emptying model rats (propantheline pretreatment); assay type: in vivo, rat; details: propantheline 1 mg/kg i.v. 5 min before 10 mg/kg oral 2-13C uracil; expired air 5-60 min
Method: “Propantheline”, an anticholinergic agent, was intravenously administered to rats (female, Wister rat, 8 weeks old: n=3) in such an amount of 1 mg/kg to obtain model animals whose gastric-emptying function was decreased (a delayed gastric-emptying model). […] The expired air samples were collected over time, and the ^13CO2 concentration in each expired air sample was measured.

- change of solubility depending on the pH of the solution ([1]; pH 2): almost unchanged
Structure (SMILES): O=c1cc[nH]c(=O)[nH]1 [uracil]

- 2-13C uracil concentrations in plasma [2]: lowered
- Solubility ([1]; pH 2): 0.28 w/v %
- Solubility ([1]; pH 4): 0.28 w/v %
- Solubility ([1]; pH 6): 0.28 w/v %
- Solubility ([1]; pH 8): 0.29 w/v %
Structure (SMILES): O=c1cc[nH][13c](=O)[nH]1 [2-^13C uracil]

Structure (SMILES): CC(C)[N+](C)(CCOC(=O)C1c2ccccc2Oc2ccccc21)C(C)C [propantheline, Propantheline]
- 13CO2 concentration (Δ13C value) excreted in expired air versus normal rats [3]: significantly lower
